Assay results published in PMC5863515, “Re-evaluation of Adrenocorticotropic Hormone and Melanocyte Stimulating Hormone Activation of GPR139 in Vitro” (Frontiers in Pharmacology, 2018).
Read-outs that look alike come from different tables or passages of the source.

Experiments:
[1] = target: T1, GPR139 (Homo sapiens, UniProt Q6DWJ6); test: cAMP assay; type: cell-based; conditions: unpublished data
T1 sequence (Q6DWJ6 1-353): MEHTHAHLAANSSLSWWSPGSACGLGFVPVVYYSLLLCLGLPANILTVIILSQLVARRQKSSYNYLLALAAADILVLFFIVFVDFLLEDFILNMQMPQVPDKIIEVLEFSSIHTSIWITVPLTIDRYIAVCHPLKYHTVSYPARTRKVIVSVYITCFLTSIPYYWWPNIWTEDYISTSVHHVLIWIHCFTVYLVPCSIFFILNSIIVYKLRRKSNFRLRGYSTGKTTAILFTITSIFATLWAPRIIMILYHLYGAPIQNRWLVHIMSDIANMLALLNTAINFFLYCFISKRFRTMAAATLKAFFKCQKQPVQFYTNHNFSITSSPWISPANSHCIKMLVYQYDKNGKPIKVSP

[2] = target: T2, GPR139 + MC3R (Homo sapiens, UniProt Q6DWJ6); test: Calcium mobilization, stable GPR139-HEK-293 cell line transiently expressing MC3R; type: cell-based
T2 construct: expressed in transfected cells; host or cells: HEK-293 GPR139 clone#33, MC3R transient (FuGENE HD)
T2 sequence (Q6DWJ6 1-353): T1 sequence (Q6DWJ6 1-353)
Experimental: (§1) Human MC3R (NM_019888), MC4R (NM_005912), and MC5R (NM_005913) were transiently expressed in HEK-293 cells with and without human GPR139 (KR081941) or the chimeric G-protein Gα16. All genes were cloned into pCIneo (Promega, Madison, WI, United States, #E1841). HEK-293 cells were cultured in DMEM/F12 (Gibco, Grand Island, NY, United States, #11039-021), 10% FBS (Hyclone, Logan, UT, United States, # SH300700.03), 50 units/ml penicillin and 50 μg/ml streptomycin (Mediatech, Manassas, VA, United States, #30-001-CI). Cells were seeded at 4 × 10^6 cells in 10 cm dishes and allowed to grow overnight at 37°C, 5% CO2. On the day of transfection, culture media was replaced with F12-K (Mediatech, Manassas, VA, United States, #10-025-CV), 10% FBS, 20 mM HEPES (Hyclone, Logan, UT, United States, #SH30237.01) and transfected with 15 μg DNA (10 μg MCR:5 μg pCIneo, 10 μg MCR:5 μg Gα16 or 7.5 μg MCR:7.5 μg GPR139) using FuGene HD (Promega, Madison, WI, United States, #E2311) according to manufacturer’s instructions. MC3R, MC4R, and MC5R were also transiently expressed in the following GPR139 stably expressing cell lines using the FuGENE HD method: HEK-293 GPR139 clone#33, CHO-TREx GPR139 clone#18, and SK-N-MC/CRE TREx GPR139 clone#35. Stable cell lines were established according to method previously described ([Liu et al., 2015]).
(§2) Intracellular calcium mobilization was measured with the BD calcium kit (BD Bioscience, San Jose, CA, United States). The recombinant cell lines expressing MC3R, MC4R, and MC5R with and without GPR139 or Gα16 were seeded in culture media at a density of 50,000 cells/well into 96-well black/clear-bottom poly-D-lysine treated tissue culture plates. Cells were incubated overnight at 37°C and 5% CO2. Next day, culture media was removed and cells were washed with HBSS prior to dye-loading for 1 h at 37°C and 5% CO2. […] EC50s were calculated by fitting a three-parameter logistic curve using least-squares non-linear regression analysis as implemented in Graphpad Prism 7.0.

[3] = target: T1, GPR139; test: [35S]-GTPγS binding assay, membranes of CHO-TREx cells stably expressing GPR139; type: biochemical; parameters: expressed in transfected cells; host or cells: CHO-TREx GPR139 clone#18; conditions: for Stimulation of [35S]-GTPγS incorporation after pertussis toxin treatment: 100 ng/ml pertussis toxin overnight; for Stimulation of [35S]-GTPγS incorporation after pertussis toxin treatment / Effect of YM-254890 on agonist [35S]-GTPγS response: data not shown; for Effect of YM-254890 on agonist [35S]-GTPγS response: 1 μM YM-254890 (Gq inhibitor); for EC50: CHO-TREx GPR139 membranes, mean ± SEM, read-out: pEC50, [35S]-GTPγS binding (converted)
Experimental: For G-protein inhibitor experiments, CHO-TRex cells stably expressing GPR139 were treated with 100 ng/ml pertussis toxin (Gi/o inhibitor) overnight prior to harvesting cells for membrane preparations. […] Reactions were terminated by rapid filtration through GF/C filterplates (Perkin-Elmer, Waltham, MA, United States) on a Cell Harvester (Perkin-Elmer, Waltham, MA, United States). Filterplates were washed three times with ice-cold wash buffer (50 mM Tris, 5 mM MgCl2) and Microscint-40 was added to each well. Bound radioactivity was measured on a Topcount scintillation counter (Perkin-Elmer, Waltham, MA, United States). […] EC50s were calculated by modeling the response associated with the logarithm of concentration as a three-parameter logistic curve with the Bottom plateau parameter fixed at 0. The fit was obtained using least-squares non-linear regression as implemented in GraphPad Prism 7.0.

[4] = target: MC4R + Gα16 (Homo sapiens, UniProt P32245); test: Calcium mobilization, HEK-293 transiently expressing MC4R + Gα16; type: cell-based; parameters: expressed in transfected cells; host or cells: HEK-293, pCIneo, transient (10 μg MCR:5 μg Gα16)
MC4R + Gα16, sequence (P32245 whole entry): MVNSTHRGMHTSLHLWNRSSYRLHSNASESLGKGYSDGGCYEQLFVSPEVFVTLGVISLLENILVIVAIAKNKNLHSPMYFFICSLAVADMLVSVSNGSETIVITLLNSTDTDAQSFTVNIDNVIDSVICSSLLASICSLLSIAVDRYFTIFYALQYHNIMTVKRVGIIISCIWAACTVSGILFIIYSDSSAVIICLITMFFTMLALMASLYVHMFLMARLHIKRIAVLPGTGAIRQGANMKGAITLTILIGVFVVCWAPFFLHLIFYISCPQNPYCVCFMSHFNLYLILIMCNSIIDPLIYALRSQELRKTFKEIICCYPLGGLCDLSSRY
Experimental: as §1, §2

[5] = target: T1, GPR139; test: Calcium mobilization, CHO-TREx cells stably expressing human GPR139; type: cell-based; parameters: expressed in transfected cells; host or cells: CHO-TREx GPR139 clone#18
[6] = target: T1, GPR139; test: [3H]JNJ-63533054 radioligand binding assay, membranes of CHO-TREx cells stably expressing human GPR139; parameters: expressed in transfected cells; host or cells: CHO-TREx GPR139 clone#18
Experimental: Reaction was terminated by filtration through GF/C filterplates pre-treated with PEI (polyethyleneimine) followed by washes with ice-cold TE buffer. Filterplates were dried in a 60°C oven followed by addition of Microscint-0. Bound radioactivity was read on a Topcount scintillation counter. […] Half-maximal inhibitory concentrations (IC50s) of test compounds were calculated by fitting a three-parameter logistic curve using least-squares non-linear regression analysis as implemented in Graphpad Prism 7.0. The Top plateau was fixed at 100 and the Bottom was fixed at 0.

[7] = target: T1, GPR139; test: Calcium mobilization, SK-N-MC/CRE cells stably expressing human GPR139; type: cell-based; parameters: expressed in transfected cells; host or cells: CHO-TREx GPR139 clone#18
Experimental: as §1
Intracellular calcium mobilization was measured with the BD calcium kit (BD Bioscience, San Jose, CA, United States). The recombinant cell lines expressing MC3R, MC4R, and MC5R with and without GPR139 or Gα16 were seeded in culture media at a density of 50,000 cells/well into 96-well black/clear-bottom poly-D-lysine treated tissue culture plates. Cells were incubated overnight at 37°C and 5% CO2. Next day, culture media was removed and cells were washed with HBSS prior to dye-loading for 1 h at 37°C and 5% CO2. Agonist stimulation and intracellular calcium measurements were done on the FLIPR Tetra (Molecular Devices, Sunnyvale, CA, United States). For receptor inhibition analysis, antagonists (1 μM HS-024 or 10 μM JNJ-3792165) were added off-line 15 min prior to agonist addition on the Tetra. For G-protein inhibitor experiments, cells were treated with 1 μM YM-254890 for 5 min prior to agonist additions on the Tetra. […] Responses in Figure 6 were normalized to its respective agonist response without antagonist. EC50s were calculated by fitting a three-parameter logistic curve using least-squares non-linear regression analysis as implemented in Graphpad Prism 7.0.

[8] = read-out: Agonist potency (pEC50), stable GPR139-HEK-293 + MC3R (converted)
[9] = HEK-293 transient, read-out: Agonist potency (pEC50), MC4R + Gα16 (converted)
[10] = CHO-TREx stable GPR139, read-out: pEC50, calcium mobilization (converted)
[11] = 10 nM radioligand, CHO-TREx GPR139 membranes, read-out: pKi, displacement of [3H]JNJ-63533054 (converted)
[12] = SK-N-MC/CRE stable GPR139, read-out: pEC50, calcium mobilization (converted)

Row | Structure (SMILES) | Response in a cAMP assay [1] | EC50 [2, 8] [nM] | Stimulation of [35S]-GTPγS incorporation after pertussis toxin treatment [3] | Effect of YM-254890 on agonist [35S]-GTPγS response [3] | EC50 [3] [nM] | EC50 [4, 9] [µM] | EC50 [5, 10] [nM] | Ki [6, 11] [nM] | EC50 [7, 12] [nM] | EC50 [2] [nM] | EC50 [4] [µM] | EC50 [5] [nM] | Ki [6] [nM] | EC50 [7] [nM]
1 | C[C@H](NC(=O)CNC(=O)c1cccc(Cl)c1)c1ccccc1 [JNJ-63533054, 3-chloro-N-[2-oxo-2-[[(1S)-1-phenylethyl]amino]ethyl]benzamide] | unable to detect a response | 20.4 | did not stimulate | had no effect | 64.6 | > 10 | 13.2 | 34.7 | 26.3 |  |  |  |  | 
2 | N[C@@H](Cc1c[nH]c2ccccc12)C(=O)O [L-Trp, L-tryptophan] | unable to detect a response | 126000 | did not stimulate | had no effect | 427000 | > 3160 | 123000 | 646000 | 398000 |  |  |  |  | 
3 | COc1cc(OC)cc(C(=O)NNC(=O)Nc2cccc3ccccc23)c1 [TC-O9311] | unable to detect a response |  | did not stimulate | had no effect | 178 |  |  |  |  | 50.1 | > 10 | 39.8 | 89.1 | 49
